Assay: Solid tumour dose-escalation study: pharmacokinetics (plasma, urine)
Assay type: in vivo, human
Protocol: The schedules for collection of blood and urine samples for PK analyses in each cohort in both studies are described in Supplementary Table 1. When necessary for clinical response assessment in the AML study, a bone marrow sample for PK analysis was collected at Cycle 1, Day 28.
The concentration of AZD1208 in plasma and urine was determined by Covance, on behalf of Clinical Bioanalysis Alliance at AstraZeneca R&D, using a bioanalytical method. A volume of 0.05 ml of K2EDTA human plasma sample was extracted by liquid–liquid extraction using 0.7 ml of methyl tert-butyl ether. Approximately 100 µl of the supernatant was transferred, evaporated to dryness and reconstituted with 350 µl of 1:1 methanol:water, and a 5 µl injection was made to the high-performance liquid chromatography (HPLC) column. HPLC separations were performed on a Phenomenex LUNA C18 (50 × 2 mm, 5 µm) column using a mobile phase of 0.1% formic acid in water (A) and 0.1% formic acid in acetonitrile (B) at a flow rate of 0.6 ml/min and a column temperature of 40 °C. AZD1208-D5 was used as the internal standard. Detection was performed in a Sciex API4000 mass spectrometer, in a positive electrospray ionisation mode, using multiple reaction monitoring detection (AZD1208: 380.0–>248.1; AZD1208-D5: 385.0–>253.1).

N[C@@H]1CCCN(c2c(/C=C3\SC(=O)NC3=O)cccc2-c2ccccc2)C1 [AZD1208]
Plasma concentration of AZD1208, Gmean (Cycle 0, Day 1, 1 h post-dose, 120 mg): n=3 156.2 ng ml | Plasma concentration of AZD1208, Gmean (Cycle 0, Day 1, 1 h post-dose, 240 mg): n=7 668.4 ng ml | Plasma concentration of AZD1208, Gmean (Cycle 0, Day 1, 1 h post-dose, 360 mg): n=5 1424 ng ml | Plasma concentration of AZD1208, Gmean (Cycle 0, Day 1, 1 h post-dose, 540 mg): n=7 1053 ng ml | Plasma concentration of AZD1208, Gmean (Cycle 0, Day 1, 1 h post-dose, 700 mg): n=6 691.7 ng ml | Plasma concentration of AZD1208, Gmean (Cycle 0, Day 1, 1 h post-dose, 800 mg): n=6 925.6 ng ml | Plasma concentration of AZD1208, Gmean (Cycle 0, Day 1, 1.5 h post-dose, 120 mg): n=3 696.5 ng ml | Plasma concentration of AZD1208, Gmean (Cycle 0, Day 1, 1.5 h post-dose, 240 mg): n=7 1317 ng ml | Plasma concentration of AZD1208, Gmean (Cycle 0, Day 1, 1.5 h post-dose, 360 mg): n=5 2509 ng ml | Plasma concentration of AZD1208, Gmean (Cycle 0, Day 1, 1.5 h post-dose, 540 mg): n=7 2747 ng ml | Plasma concentration of AZD1208, Gmean (Cycle 0, Day 1, 2 h post-dose, 120 mg): n=3 1064 ng ml | Plasma concentration of AZD1208, Gmean (Cycle 0, Day 1, 2 h post-dose, 240 mg): n=7 1906 ng ml | Plasma concentration of AZD1208, Gmean (Cycle 0, Day 1, 2 h post-dose, 360 mg): n=6 3412 ng ml | Plasma concentration of AZD1208, Gmean (Cycle 0, Day 1, 2 h post-dose, 540 mg): n=7 4049 ng ml | Plasma concentration of AZD1208, Gmean (Cycle 0, Day 1, 2 h post-dose, 700 mg): n=6 3514 ng ml | Plasma concentration of AZD1208, Gmean (Cycle 0, Day 1, 2 h post-dose, 800 mg): n=6 2929 ng ml | Plasma concentration of AZD1208, Gmean (Cycle 0, Day 1, 4 h post-dose, 120 mg): n=3 720.6 ng ml | Plasma concentration of AZD1208, Gmean (Cycle 0, Day 1, 4 h post-dose, 240 mg): n=6 1531 ng ml | Plasma concentration of AZD1208, Gmean (Cycle 0, Day 1, 4 h post-dose, 360 mg): n=6 3157 ng ml | Plasma concentration of AZD1208, Gmean (Cycle 0, Day 1, 4 h post-dose, 540 mg): n=7 3160 ng ml | Plasma concentration of AZD1208, Gmean (Cycle 0, Day 1, 4 h post-dose, 700 mg): n=6 4581 ng ml | Plasma concentration of AZD1208, Gmean (Cycle 0, Day 1, 4 h post-dose, 800 mg): n=6 3844 ng ml | Plasma concentration of AZD1208, Gmean (Cycle 0, Day 1, 6 h post-dose, 120 mg): n=3 681 ng ml | Plasma concentration of AZD1208, Gmean (Cycle 0, Day 1, 6 h post-dose, 240 mg): n=7 1408 ng ml | Plasma concentration of AZD1208, Gmean (Cycle 0, Day 1, 6 h post-dose, 360 mg): n=6 2501 ng ml | Plasma concentration of AZD1208, Gmean (Cycle 0, Day 1, 6 h post-dose, 540 mg): n=7 3190 ng ml | Plasma concentration of AZD1208, Gmean (Cycle 0, Day 1, 6 h post-dose, 700 mg): n=6 5091 ng ml | Plasma concentration of AZD1208, Gmean (Cycle 0, Day 1, 6 h post-dose, 800 mg): n=6 2677 ng ml | Plasma concentration of AZD1208, Gmean (Cycle 0, Day 1, 8 h post-dose, 120 mg): n=3 597.8 ng ml | Plasma concentration of AZD1208, Gmean (Cycle 0, Day 1, 8 h post-dose, 240 mg): n=7 1456 ng ml | Plasma concentration of AZD1208, Gmean (Cycle 0, Day 1, 8 h post-dose, 360 mg): n=6 2196 ng ml | Plasma concentration of AZD1208, Gmean (Cycle 0, Day 1, 8 h post-dose, 540 mg): n=7 2957 ng ml | Plasma concentration of AZD1208, Gmean (Cycle 0, Day 1, 8 h post-dose, 700 mg): n=6 4256 ng ml | Plasma concentration of AZD1208, Gmean (Cycle 0, Day 1, 8 h post-dose, 800 mg): n=6 3463 ng ml | Plasma concentration of AZD1208, Gmean (Cycle 0, Day 1, 24 h post-dose, 120 mg): n=3 459.4 ng ml | Plasma concentration of AZD1208, Gmean (Cycle 0, Day 1, 24 h post-dose, 240 mg): n=7 1157 ng ml | Plasma concentration of AZD1208, Gmean (Cycle 0, Day 1, 24 h post-dose, 360 mg): n=6 1649 ng ml | Plasma concentration of AZD1208, Gmean (Cycle 0, Day 1, 24 h post-dose, 540 mg): n=7 2111 ng ml | Plasma concentration of AZD1208, Gmean (Cycle 0, Day 1, 24 h post-dose, 700 mg): n=6 2957 ng ml | Plasma concentration of AZD1208, Gmean (Cycle 0, Day 1, 24 h post-dose, 800 mg): n=6 2466 ng ml | Plasma concentration of AZD1208, Gmean (Cycle 0, Day 1, 48 h post-dose, 120 mg): n=3 308.4 ng ml | Plasma concentration of AZD1208, Gmean (Cycle 0, Day 1, 48 h post-dose, 240 mg): n=7 773.2 ng ml | Plasma concentration of AZD1208, Gmean (Cycle 0, Day 1, 48 h post-dose, 360 mg): n=6 1361 ng ml | Plasma concentration of AZD1208, Gmean (Cycle 0, Day 1, 48 h post-dose, 540 mg): n=7 1168 ng ml | Plasma concentration of AZD1208, Gmean (Cycle 0, Day 1, 48 h post-dose, 700 mg): n=6 1717 ng ml | Plasma concentration of AZD1208, Gmean (Cycle 0, Day 1, 48 h post-dose, 800 mg): n=6 1377 ng ml | Plasma concentration of AZD1208, Gmean (Cycle 0, Day 1, 72 h post-dose, 120 mg): n=3 221.4 ng ml | Plasma concentration of AZD1208, Gmean (Cycle 0, Day 1, 72 h post-dose, 240 mg): n=7 501.1 ng ml | Plasma concentration of AZD1208, Gmean (Cycle 0, Day 1, 72 h post-dose, 360 mg): n=6 912.2 ng ml | Plasma concentration of AZD1208, Gmean (Cycle 0, Day 1, 72 h post-dose, 540 mg): n=7 710.8 ng ml | Plasma concentration of AZD1208, Gmean (Cycle 0, Day 1, 72 h post-dose, 700 mg): n=6 1141 ng ml | Plasma concentration of AZD1208, Gmean (Cycle 0, Day 1, 72 h post-dose, 800 mg): n=6 798.7 ng ml | Plasma concentration of AZD1208, Gmean (Cycle 1, Day 15, 0.25 h post-dose, 120 mg): n=3 963.7 ng ml | Plasma concentration of AZD1208, Gmean (Cycle 1, Day 15, 0.25 h post-dose, 240 mg): n=6 606.8 ng ml | Plasma concentration of AZD1208, Gmean (Cycle 1, Day 15, 0.25 h post-dose, 360 mg): n=2 562.8 ng ml
